Values after ≈ are worked out from the molar mass of the structure shown.
How the values were obtained:
Bacillus subtilis 168CA = experiment: Minimum Inhibitory Concentration (MIC) testing, broth microdilution, Bacillus subtilis; assay type: cell-based; conditions: Bacillus subtilis 168CA; read-out: Bacillus subtilis MICs Activity
Procedure, shortened: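 MICs were scored A (≦8 μg/ml), B (16–64 μg/ml) or C (>64 μg/ml), read as the lowest concentration preventing visible growth by eye and spectrophotometry. Plates incubated overnight (16–20 h) at 37 °C, inoculum OD 0.09 diluted 1:100 in 2× broth, per NCCLS guidelines.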

[1] = system: Staphylococcus aureus ATCC29213; experiment: Minimum Inhibitory Concentration (MIC) testing, broth microdilution, Staphylococcus aureus; assay type: cell-based; conditions: Staphylococcus aureus ATCC29213; read-out: Staphylococcus aureus MICs Activity
Procedure, shortened: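 Broth microdilution per NCCLS M7-A5 in Mueller Hinton broth, with compound in 1.6% DMSO and inoculum at OD 0.09 diluted 1:100. Plates incubated 16–20 h at 37°C. MIC is the lowest concentration with no visible growth; scored A ≤8, B 16–64, C >64 μg/ml.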

| Structure (SMILES) | MIC (Bacillus subtilis 168CA) [mg/L] | MIC [1] [mg/L] |
| --- | --- | --- |
| COc1ccc(-c2nc(COc3ccc(F)c(C(N)=O)c3F)sc2-c2ccc(O)cc2)cc1 [Example 279, 2,6-Difluoro-3-[5-(4-hydroxy-phenyl)-4-(4-methoxy-phenyl)-thiazol-2-ylmethoxy]-benzamide] | < 8 | < 8 |
| NC(=O)c1c(F)ccc(OCc2nc(-c3ccc(C(F)(F)F)cc3)no2)c1F [Example 243, 2,6-Difluoro-3-(3-[4-(trifluoromethyl)phenyl]-1,2,4-oxadiazol-5-ylmethoxy)benzenecarboxamide] | < 8 | < 8 |
| CCCCCCOc1cccc(C(N)=O)c1 [Example 8, 3-(Hexyloxy)benzenecarboxamide] | 16 to 64 (≈ 72.3 to 289 µM) | 16 to 64 (≈ 72.3 to 289 µM) |
| NC(=O)c1c(F)ccc(OCc2nnc(C3CC3)s2)c1F [Example 138, 3-(5-Cyclopropyl-[1,3,4]thiadiazol-2-ylmethoxy)-2,6-difluoro-benzamide] | > 64 | > 64 |
| NC(=O)c1cccc(OCc2nc(-c3ccc(Cl)cc3)no2)c1F [Example 267, 3-[3-(4-Chloro-phenyl)-[1,2,4]oxadiazol-5-ylmethoxy]-2-fluoro-benzamide] | < 8 | < 8 |
| Cc1csc(COc2ccc(F)c(C(N)=O)c2F)n1 [Example 193, 2,6-Difluoro-3-[(4-methyl-1,3-thiazol-2-yl)methoxy]benzenecarboxamide] | 16 to 64 (≈ 56.3 to 225 µM) | 16 to 64 (≈ 56.3 to 225 µM) |
| Cc1noc(C)c1-c1nc(COc2ccc(F)c(C(N)=O)c2F)no1 [Example 145, 3-[5-(3,5-Dimethyl-isoxazol-4-yl)-[1,2,4]oxadiazol-3-ylmethoxy]-2,6-difluoro-benzamide] | 16 to 64 (≈ 45.7 to 183 µM) | > 64 |
| COc1ccc(-c2nc(COc3ccc(F)c(C(N)=O)c3F)sc2-c2ccccn2)cc1 [Example 125, 2,6-Difluoro-3-[4-(4-methoxy-phenyl)-5-pyridin-2-yl-thiazol-2-ylmethoxy]-benzamide] | < 8 | < 8 |
| NC(=O)c1cccc(OCCCCCCc2ccccc2)c1 [Example 36, 3-[(6-Phenylhexyl)oxy]benzenecarboxamide] | < 8 | > 64 |
| NC(=O)c1c(F)ccc(OCc2csc(-c3cccc(O)c3)n2)c1F [Example 308, 2,6-Difluoro-3-[2-(3-hydroxy-phenyl)-thiazol-4-ylmethoxy]-benzamide] | < 8 | 16 to 64 (≈ 44.2 to 177 µM) |
| CCC1CC1CCCCOc1cccc(C(N)=O)c1 (stereo not drawn) [Example 91, 3-[4-(2-Ethylcyclopropyl)butoxy]benzenecarboxamide] | < 8 | < 8 |
| NC(=O)c1c(F)ccc(OCc2nc3cc(Br)ccc3s2)c1F [Example 123, 3-(5-Bromo-benzothiazol-2-ylmethoxy)-2,6-difluoro-benzamide] | < 8 | < 8 |
| CCc1ccc(-c2noc(COc3ccc(F)c(C(N)=O)c3F)n2)cc1 [Example 250, 3-[3-(4-Ethylphenyl)-1,2,4-oxadiazol-5-yl]methoxy-2,6-difluorobenzenecarboxamide] | < 8 | < 8 |
| NC(=O)c1c(F)ccc(OCc2nc(-c3ccccc3)cs2)c1F [Example 235, 2,6-Difluoro-3-[(4-phenyl-1,3-thiazol-2-yl)methoxy]benzenecarboxamide] | < 8 | < 8 |
| NC(=O)c1c(F)ccc(OCc2csc(-c3ccc(O)cc3)n2)c1F [Example 304, 2,6-Difluoro-3-[2-(4-hydroxy-phenyl)-thiazol-4-ylmethoxy]-benzamide] | < 8 | < 8 |
| NC(=O)c1c(F)ccc(OCc2cccc(Oc3ccccc3)c2)c1F [Example 162, 2,6-Difluoro-3-(3-phenoxy-benzyloxy)-benzamide] | < 8 | < 8 |
| NC(=O)c1c(F)ccc(OCc2nccs2)c1F [Example 191, 2,6-Difluoro-3-(1,3-thiazol-2-ylmethoxy)benzenecarboxamide] | 16 to 64 (≈ 59.2 to 237 µM) | 16 to 64 (≈ 59.2 to 237 µM) |
| NC(=O)c1cccc(OCc2nc3cc(Cl)ccc3s2)c1F [Example 219, 3-[(5-Chloro-1,3-benzothiazol-2-yl)methoxy]-2-fluorobenzenecarboxamide] | < 8 | < 8 |
| CCCCC#CCCCOc1cccc(C(N)=O)c1 [Example 32, 3-(4-Nonynyloxy)benzenecarboxamide] | < 8 | 16 to 64 (≈ 61.7 to 247 µM) |
| Cc1nn(-c2ccccc2)nc1COc1ccc(F)c(C(N)=O)c1F [Example 325, 2,6-Difluoro-3-(5-methyl-2-phenyl-2H-[1,2,3]triazol-4-ylmethoxy)-benzamide] | < 8 | 16 to 64 (≈ 46.5 to 186 µM) |
| CCCCCCCCCOc1ccc(Cl)c(C(N)=O)c1 [Example 68, 2-Chloro-5-(nonyloxy)benzenecarboxamide] | < 8 | < 8 |
| NC(=O)c1c(F)ccc(OCc2csc(-c3ccc(F)cc3)n2)c1F [Example 305, 2,6-Difluoro-3-[2-(4-fluoro-phenyl)-thiazol-4-ylmethoxy]-benzamide] | < 8 | < 8 |
| CCCCCOCCOc1cccc(C(N)=O)c1 [Example 53, 3-[2-(Pentyloxy)ethoxy]benzenecarboxamide] | > 64 | > 64 |

| Structure (SMILES) | MIC (Bacillus subtilis 168CA) [mg/L] | MIC [1] [mg/L] |
| --- | --- | --- |
| CCCCCCCCOc1cccc(C(N)=O)c1 [Example 19, 3-(Octyloxy)benzenecarboxamide] | < 8 | < 8 |
| NC(=O)c1c(F)ccc(OCc2nc3cc(C4CCCC4)ccc3s2)c1F [Example 317] | < 8 | < 8 |
| NC(=O)c1c(F)ccc(OCc2csc(-c3ccc(OC(F)(F)F)cc3)n2)c1F [Example 307, 2,6-Difluoro-3-[2-(4-trifluoromethoxy-phenyl)-thiazol-4-ylmethoxy]-benzamide] | < 8 | < 8 |
| CCCCCCOc1nccc(C(N)=O)c1Cl [Example 174, 3-Chloro-2-(hexyloxy)isonicotinamide] | 16 to 64 (≈ 62.3 to 249 µM) | 16 to 64 (≈ 62.3 to 249 µM) |
| CCCCCCOc1cc(F)cc(C(N)=O)c1 [Example 167, 3-Fluoro-5-hexyloxy benzamide] | 16 to 64 (≈ 66.9 to 267 µM) | 16 to 64 (≈ 66.9 to 267 µM) |
| COc1ccc(-c2nc(COc3ccc(F)c(C(N)=O)c3F)sc2-c2ccccc2OC)cc1 [Example 280, 2,6-Difluoro-3-[5-(2-methoxy-phenyl)-4-(4-methoxy-phenyl)-thiazol-2-ylmethoxy]-benzamide] | < 8 | < 8 |
| NC(=O)c1c(F)ccc(OCc2csc(-c3ccc(Cl)cc3)n2)c1F [Example 306, 3-[2-(4-Chloro-phenyl)-thiazol-4-ylmethoxy]-2,6-difluoro-benzamide] | < 8 | < 8 |
| CCC(C)CCOc1cccc(C(N)=O)c1 (stereo not drawn) [Example 60, 3-[(3-Methylpentyl)oxy]benzenecarboxamide] | 16 to 64 (≈ 72.3 to 289 µM) | 16 to 64 (≈ 72.3 to 289 µM) |
| NC(=O)c1c(F)ccc(OCc2nc3cc(Cl)ccc3s2)c1Cl [Example 221, 2-Chloro-3-[(5-chloro-1,3-benzothiazol-2-yl)methoxy]-6-fluorobenzenecarboxamide] | < 8 | < 8 |
| NC(=O)c1c(F)ccc(OCCCCO)c1F [Example 178, 2,6-Difluoro-3-(4-hydroxybutoxy)benzenecarboxamide] | 16 to 64 (≈ 65.2 to 261 µM) | 16 to 64 (≈ 65.2 to 261 µM) |
| COc1ccc(-c2nc(COc3ccc(F)c(C(N)=O)c3F)cs2)cc1 [Example 323, 2,6-Difluoro-3-[2-(4-methoxy-phenyl)-thiazol-4-ylmethoxy]-benzamide] | < 8 | < 8 |
| CC/C=C\CCCCOc1cccc(C(N)=O)c1 [Example 52, 3-[(Z)-5-Octenyloxy]benzenecarboxamide] | < 8 | < 8 |
| C=CCc1ccc2sc(COc3ccc(F)c(C(N)=O)c3F)nc2c1 [Example 126, 3-(5-Allyl-benzothiazol-2-ylmethoxy)-2,6-difluoro-benzamide] | < 8 | < 8 |
| NC(=O)c1c(F)ccc(OCc2ccc3c(Br)cccc3n2)c1F [Example 151, 3-(5-Bromo-quinolin-2-ylmethoxy)-2,6-difluoro-benzamide] | < 8 | 16 to 64 (≈ 40.7 to 163 µM) |
| Cc1ccc(OCc2noc(COc3ccc(F)c(C(N)=O)c3F)n2)cc1 [Example 263, 2,6-Difluoro-3-(3-[(4-methylphenoxy)methyl]-1,2,4-oxadiazol-5-ylmethoxy)benzenecarboxamide] | < 8 | 16 to 64 (≈ 42.6 to 171 µM) |
| Cc1oc(-c2ccc(Cl)cc2)nc1COc1ccc(F)c(C(N)=O)c1F [Example 297, 3-[2-(4-Chloro-phenyl)-5-methyl-oxazol-4-ylmethoxy]-2,6-difluoro-benzamide] | < 8 | < 8 |
| NC(=O)c1c(F)ccc(OCc2nc(-c3ccc(O)cc3)cs2)c1F [Example 290, 2,6-Difluoro-3-[4-(4-hydroxy-phenyl)-thiazol-2-ylmethoxy]-benzamide] | < 8 | < 8 |
| NC(=O)c1c(F)ccc(OCc2ccsc2)c1F [Example 188, 2,6-Difluoro-3-(3-thienylmethoxy)benzenecarboxamide] | 16 to 64 (≈ 59.4 to 238 µM) | 16 to 64 (≈ 59.4 to 238 µM) |
| CCCCCCCOc1cccc(C(N)=O)c1 [Example 24, 3-(Heptyloxy)benzenecarboxamide] | < 8 | < 8 |
| COc1ccc2nc(COc3ccc(F)c(C(N)=O)c3F)ccc2c1 [Example 109, 3-(6-Methoxyquinolin-2-ylmethoxy)-2,6-difluoro-benzamide] | < 8 | 16 to 64 (≈ 46.5 to 186 µM) |
| CCCCCC#CCOc1cccc(C(N)=O)c1 [Example 31, 3-(2-Octynyloxy)benzenecarboxamide] | 16 to 64 (≈ 65.2 to 261 µM) | 16 to 64 (≈ 65.2 to 261 µM) |
| CCCCCCOCCOc1cccc(C(N)=O)c1 [Example 54, 3-[2-(Hexyloxy)ethoxy]benzenecarboxamide] | 16 to 64 (≈ 60.3 to 241 µM) | 16 to 64 (≈ 60.3 to 241 µM) |

Reference: patent publication US8088791B2, “Antibacterial agents” (Biots Scientific Management Pty Ltd, priority 2006, dated 2012)
